Assay results: patent publication US20120245137A1 (Zalicus Pharmaceuticals Ltd., priority 2009, published 2012)
pIC50: −log10 of the molar value.

Key:
Format in all cases: cell-based
[1] = target: N-type calcium channel subunits (α1B, α2δ, and β3a) (Homo sapiens, UniProt Q00975); assay: Block of Cav2.2 channel, whole cell voltage clamp, manual and PatchXpress; conditions: Table 5; table follows Assay Example 3 (whole cell voltage clamp / PatchXpress); assay not given
Summary of the method: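 Percent block taken as current amplitude ratio with versus without compound, applied in rising doses; IC50 fitted where one cell received multiple doses. Protocol: 50 ms pulses to +20 mV at 0.067 Hz from […] or −90 mV holding; P/n leak subtraction, no junction-potential correction; manual and PatchXpress recordings.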

[2] = target: human α1H T-type channels (Homo sapiens, UniProt O95180); assay: T-type calcium channel block, whole cell patch clamp, α1H; conditions: HEK cells stably expressing human α1H; mainly non-inactivated protocol; values above 10,000 nM represented as 10000
Sequence of human α1H T-type channels (O95180 whole entry): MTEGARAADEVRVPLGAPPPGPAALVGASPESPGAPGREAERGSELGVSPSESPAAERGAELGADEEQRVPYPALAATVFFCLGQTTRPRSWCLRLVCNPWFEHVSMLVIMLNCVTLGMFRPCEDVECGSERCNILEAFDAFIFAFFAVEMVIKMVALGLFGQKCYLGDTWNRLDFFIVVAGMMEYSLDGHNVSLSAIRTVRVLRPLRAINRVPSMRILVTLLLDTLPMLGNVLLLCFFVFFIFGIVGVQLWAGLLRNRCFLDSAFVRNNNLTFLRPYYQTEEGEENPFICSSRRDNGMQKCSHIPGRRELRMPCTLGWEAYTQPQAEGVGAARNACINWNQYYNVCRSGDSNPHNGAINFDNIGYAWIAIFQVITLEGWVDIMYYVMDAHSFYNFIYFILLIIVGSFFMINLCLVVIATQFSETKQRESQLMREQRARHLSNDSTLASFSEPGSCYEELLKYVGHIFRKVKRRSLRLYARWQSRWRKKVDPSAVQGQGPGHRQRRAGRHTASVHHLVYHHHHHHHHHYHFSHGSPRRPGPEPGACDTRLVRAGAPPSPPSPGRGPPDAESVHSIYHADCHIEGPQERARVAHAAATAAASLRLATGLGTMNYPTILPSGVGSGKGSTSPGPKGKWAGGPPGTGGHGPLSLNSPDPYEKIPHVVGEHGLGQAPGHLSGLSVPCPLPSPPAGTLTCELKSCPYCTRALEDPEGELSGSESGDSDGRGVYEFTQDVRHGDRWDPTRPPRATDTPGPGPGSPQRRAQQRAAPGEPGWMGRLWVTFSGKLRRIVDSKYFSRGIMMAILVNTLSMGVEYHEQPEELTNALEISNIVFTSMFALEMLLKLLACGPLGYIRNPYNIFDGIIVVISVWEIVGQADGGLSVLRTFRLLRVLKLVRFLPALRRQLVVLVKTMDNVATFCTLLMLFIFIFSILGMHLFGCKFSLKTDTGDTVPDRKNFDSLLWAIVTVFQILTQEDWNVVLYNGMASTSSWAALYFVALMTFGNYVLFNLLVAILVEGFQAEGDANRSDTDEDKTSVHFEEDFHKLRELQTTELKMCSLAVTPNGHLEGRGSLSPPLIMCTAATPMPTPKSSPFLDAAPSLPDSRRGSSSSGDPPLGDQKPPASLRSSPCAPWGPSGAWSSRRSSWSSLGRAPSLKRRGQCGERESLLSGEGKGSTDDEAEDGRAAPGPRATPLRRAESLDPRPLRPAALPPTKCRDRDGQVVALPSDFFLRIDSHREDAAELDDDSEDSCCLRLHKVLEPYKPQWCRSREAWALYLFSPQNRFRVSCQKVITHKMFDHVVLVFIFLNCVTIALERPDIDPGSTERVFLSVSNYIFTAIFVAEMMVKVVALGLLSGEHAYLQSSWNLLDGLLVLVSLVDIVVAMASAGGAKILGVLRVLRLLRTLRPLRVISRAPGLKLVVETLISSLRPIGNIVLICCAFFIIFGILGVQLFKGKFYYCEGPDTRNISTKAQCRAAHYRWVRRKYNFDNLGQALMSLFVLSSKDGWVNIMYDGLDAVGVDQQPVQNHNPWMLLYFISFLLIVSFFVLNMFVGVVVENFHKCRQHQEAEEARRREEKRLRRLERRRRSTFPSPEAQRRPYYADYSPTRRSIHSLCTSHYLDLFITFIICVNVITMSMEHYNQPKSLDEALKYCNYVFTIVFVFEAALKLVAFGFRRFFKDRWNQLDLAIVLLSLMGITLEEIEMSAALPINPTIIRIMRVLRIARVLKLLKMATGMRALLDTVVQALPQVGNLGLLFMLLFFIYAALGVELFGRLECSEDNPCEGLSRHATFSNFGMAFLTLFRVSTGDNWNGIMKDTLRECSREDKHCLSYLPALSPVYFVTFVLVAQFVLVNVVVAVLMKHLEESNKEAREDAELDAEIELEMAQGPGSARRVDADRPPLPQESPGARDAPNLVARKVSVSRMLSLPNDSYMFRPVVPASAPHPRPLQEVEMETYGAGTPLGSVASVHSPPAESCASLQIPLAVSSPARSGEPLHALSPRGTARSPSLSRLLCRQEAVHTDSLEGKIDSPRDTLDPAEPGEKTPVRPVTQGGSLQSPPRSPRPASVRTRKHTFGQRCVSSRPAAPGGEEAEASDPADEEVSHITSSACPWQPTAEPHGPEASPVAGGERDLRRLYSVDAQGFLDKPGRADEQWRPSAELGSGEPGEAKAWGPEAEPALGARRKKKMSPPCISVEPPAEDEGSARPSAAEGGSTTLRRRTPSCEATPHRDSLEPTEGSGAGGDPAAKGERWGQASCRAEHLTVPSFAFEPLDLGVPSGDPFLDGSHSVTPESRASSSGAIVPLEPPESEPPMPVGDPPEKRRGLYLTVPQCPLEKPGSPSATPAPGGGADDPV
Summary of the method: (§1)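 Using standard patch-clamp, T-type currents were recorded from stably transfected human α1G or α1H HEK 293 cells. Separate non-inactivating and inactivation voltage protocols distinguished resting from voltage-dependent block by locally applied compound in 0.1-0.01% DMSO.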

[3] = target: human α1G T-type channels (Homo sapiens, UniProt O43497); assay: T-type calcium channel block, whole cell patch clamp, α1G; conditions: HEK cells stably expressing human α1G; mainly non-inactivated protocol; values above 10,000 nM represented as 10000
Sequence of human α1G T-type channels (O43497 whole entry): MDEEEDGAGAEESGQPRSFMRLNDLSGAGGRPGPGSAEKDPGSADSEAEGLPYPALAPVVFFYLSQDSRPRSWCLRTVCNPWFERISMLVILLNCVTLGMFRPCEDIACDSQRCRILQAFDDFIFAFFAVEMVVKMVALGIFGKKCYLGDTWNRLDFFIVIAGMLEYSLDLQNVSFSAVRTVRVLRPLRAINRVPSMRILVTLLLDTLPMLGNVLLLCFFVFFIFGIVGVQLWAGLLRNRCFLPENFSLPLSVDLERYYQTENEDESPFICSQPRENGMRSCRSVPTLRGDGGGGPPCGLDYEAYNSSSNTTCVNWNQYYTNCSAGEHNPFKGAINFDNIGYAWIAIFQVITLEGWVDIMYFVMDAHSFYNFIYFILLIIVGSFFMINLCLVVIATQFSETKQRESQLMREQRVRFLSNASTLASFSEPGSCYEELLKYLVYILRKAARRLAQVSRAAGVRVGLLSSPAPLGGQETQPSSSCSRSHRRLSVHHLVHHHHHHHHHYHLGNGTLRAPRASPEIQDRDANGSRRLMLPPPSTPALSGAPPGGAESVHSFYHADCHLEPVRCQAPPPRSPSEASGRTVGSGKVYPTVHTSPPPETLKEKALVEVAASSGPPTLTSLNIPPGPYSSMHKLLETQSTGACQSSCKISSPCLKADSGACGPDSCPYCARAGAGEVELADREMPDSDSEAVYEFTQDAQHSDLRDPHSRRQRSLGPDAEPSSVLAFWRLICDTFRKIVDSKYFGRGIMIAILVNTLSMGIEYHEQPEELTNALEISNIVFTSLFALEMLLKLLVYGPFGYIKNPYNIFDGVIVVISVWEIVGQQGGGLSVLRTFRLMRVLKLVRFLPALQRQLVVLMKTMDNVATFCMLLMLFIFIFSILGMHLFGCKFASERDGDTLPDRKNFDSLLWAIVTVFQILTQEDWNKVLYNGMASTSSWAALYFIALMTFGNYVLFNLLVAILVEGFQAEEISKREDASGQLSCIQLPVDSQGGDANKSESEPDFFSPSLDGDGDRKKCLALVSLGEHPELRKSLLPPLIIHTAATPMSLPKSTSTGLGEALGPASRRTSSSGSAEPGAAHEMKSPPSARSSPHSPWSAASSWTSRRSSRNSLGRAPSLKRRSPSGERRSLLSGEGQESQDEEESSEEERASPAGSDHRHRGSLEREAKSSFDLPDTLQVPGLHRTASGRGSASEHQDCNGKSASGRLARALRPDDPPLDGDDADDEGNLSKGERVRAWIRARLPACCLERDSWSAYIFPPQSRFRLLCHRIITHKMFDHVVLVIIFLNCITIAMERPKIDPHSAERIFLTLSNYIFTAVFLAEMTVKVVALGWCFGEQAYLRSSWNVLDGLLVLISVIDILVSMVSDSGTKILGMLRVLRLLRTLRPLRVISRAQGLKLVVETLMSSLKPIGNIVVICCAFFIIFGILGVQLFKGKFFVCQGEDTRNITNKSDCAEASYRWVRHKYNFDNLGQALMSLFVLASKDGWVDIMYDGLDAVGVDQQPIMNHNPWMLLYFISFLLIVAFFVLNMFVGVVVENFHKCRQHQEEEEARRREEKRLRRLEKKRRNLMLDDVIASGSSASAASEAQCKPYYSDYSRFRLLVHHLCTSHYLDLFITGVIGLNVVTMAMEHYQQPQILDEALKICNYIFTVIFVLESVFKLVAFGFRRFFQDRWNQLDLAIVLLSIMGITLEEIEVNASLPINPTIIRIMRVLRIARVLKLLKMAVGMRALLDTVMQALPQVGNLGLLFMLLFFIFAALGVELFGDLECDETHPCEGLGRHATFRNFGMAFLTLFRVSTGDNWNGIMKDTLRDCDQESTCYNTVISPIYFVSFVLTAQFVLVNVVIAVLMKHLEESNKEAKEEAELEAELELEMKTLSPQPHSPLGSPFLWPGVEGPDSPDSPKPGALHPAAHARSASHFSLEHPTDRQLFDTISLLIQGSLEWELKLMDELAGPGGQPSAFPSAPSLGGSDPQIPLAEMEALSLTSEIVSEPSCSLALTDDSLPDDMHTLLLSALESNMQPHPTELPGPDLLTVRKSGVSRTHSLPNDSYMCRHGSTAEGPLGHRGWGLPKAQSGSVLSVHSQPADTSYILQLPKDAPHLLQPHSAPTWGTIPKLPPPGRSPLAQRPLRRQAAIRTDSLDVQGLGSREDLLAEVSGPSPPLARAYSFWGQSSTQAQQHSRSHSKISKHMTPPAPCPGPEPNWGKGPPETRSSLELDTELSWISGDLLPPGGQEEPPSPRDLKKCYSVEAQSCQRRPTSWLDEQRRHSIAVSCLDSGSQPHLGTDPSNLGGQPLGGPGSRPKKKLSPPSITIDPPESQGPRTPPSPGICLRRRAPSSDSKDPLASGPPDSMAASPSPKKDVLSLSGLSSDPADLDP
Summary of the method: as §1

| Compound | IC50 [1] [nM] | pIC50 [2] | pIC50 [3] |
| --- | --- | --- | --- |
| O=C(N[C@H]1CC[C@@H](S(=O)(=O)c2cc(F)cc(C(F)(F)F)c2)CC1)c1ccc(F)c(C(F)(F)F)c1 [Compound 319, 4-fluoro-N-((1S,4S)-4-(3-fluoro-5-(trifluoromethyl)phenylsulfonyl)cyclohexyl)-3-(trifluoromethyl)benzamide] | 260 | 5.46 | 5.32 |
| O=C(N[C@H]1CC[C@@H](S(=O)(=O)c2cc(F)cc(C(F)(F)F)c2)CC1)c1ccc(F)c(Cl)c1 [Compound 320, 3-chloro-4-fluoro-N-((1S,4S)-4-(3-fluoro-5-(trifluoromethyl)phenylsulfonyl)cyclohexyl) benzamide] | 600 | 6.72 | 6.54 |
| O=C(N[C@H]1CC[C@@H](S(=O)(=O)c2cc(F)cc(C(F)(F)F)c2)CC1)c1ccc(Cl)c(OC(F)(F)F)c1 [Compound 322, 4-chloro-N-((1S,4S)-4-(3-fluoro-5-(trifluoromethyl)phenylsulfonyl)cyclohexyl)-3-(trifluoromethoxy)benzamide] | 500 | 6.20 | 5.49 |
| O=C(N[C@H]1CC[C@@H](S(=O)(=O)c2cc(F)cc(C(F)(F)F)c2)CC1)c1ccnn1CC(F)(F)F [Compound 323, N-((1S,4S)-4-(3-fluoro-5-(trifluoromethyl)phenylsulfonyl)cyclohexyl)-1-(2,2,2-trifluoroethyl)-1Hpyrazole-5-carboxamide] | 2410 | 6.14 | 5.87 |
| O=C(N[C@H]1CC[C@@](F)(S(=O)(=O)c2cc(F)cc(C(F)(F)F)c2)CC1)c1cc(C(F)(F)F)n[nH]1 [Compound 324, N-((1S,4S)-4-fluoro-4-(3-fluoro-5-(trifluoromethyl)phenylsulfonyl)cyclohexyl)-3-(trifluoromethyl)-1H-pyrazole-5-carboxamide] | 1060 | 5.91 | 5.50 |
| O=C(N[C@H]1CC[C@@](F)(S(=O)(=O)c2cc(F)cc(C(F)(F)F)c2)CC1)c1ccc(F)c(C(F)(F)F)c1 [Compound 325, 4-fluoro-N-((1S,4S)-4-fluoro-4-(3-fluoro-5-(trifluoromethyl)phenylsulfonyl)cyclohexyl)-3-(trifluoromethyl)benzamide] | 320 | 5.88 | 5.62 |
| Cn1nc(C(F)(F)F)cc1C(=O)N[C@H]1CC[C@@](F)(S(=O)(=O)c2cc(F)cc(C(F)(F)F)c2)CC1 [Compound 327, N-((1S,4S)-4-fluoro-4-(3-fluoro-5-(trifluoromethyl)phenylsulfonyl)cyclohexyl)-1-methyl-3-(trifluoromethyl)-1Hpyrazole-5-carboxamide] | 630 | 6.12 | 5.55 |
| O=C(N[C@H]1CC[C@@](F)(S(=O)(=O)c2cc(F)cc(C(F)(F)F)c2)CC1)c1cc(C(F)(F)F)ccn1 [Compound 328, N-((1S,4S)-4-fluoro-4-(3-fluoro-5-(trifluoromethyl)phenylsulfonyl)cyclohexyl)-4-(trifluoromethyl)picolinamide] | 710 | 5.61 | < 5.00 |
| O=C(N[C@H]1CC[C@@](F)(S(=O)(=O)c2cc(F)cc(C(F)(F)F)c2)CC1)c1ccc(F)c(Cl)c1 [Compound 329, 3-chloro-4-fluoro-N-((1S,4S)-4-fluoro-4-(3-fluoro-5-(trifluoromethyl)phenylsulfonyl)cyclohexyl) benzamide] | 350 | < 5.00 | < 5.00 |
| CS(=O)(=O)c1cc(C(F)(F)F)ccc1C(=O)N[C@H]1CC[C@@](F)(S(=O)(=O)c2cc(F)cc(C(F)(F)F)c2)CC1 [Compound 330, N-((1S,4S)-4-fluoro-4-(3-fluoro-5-(trifluoromethyl)phenylsulfonyl)cyclohexyl)-2-(methylsulfonyl)-4-(trifluoromethyl)benzamide] | 1020 | 6.03 | 5.07 |
| CS(=O)(=O)c1cc(C(F)(F)F)cnc1C(=O)N[C@H]1CC[C@@](F)(S(=O)(=O)c2cc(F)cc(C(F)(F)F)c2)CC1 [Compound 331, N-((1S,4S)-4-fluoro-4-(3-fluoro-5-(trifluoromethyl)phenylsulfonyl)cyclohexyl)-3-(methylsulfonyl)-5-(trifluoromethyl)picolinamide] | 1290 | 5.82 | 5.58 |
| O=C(N[C@H]1CC[C@@](F)(S(=O)(=O)c2cc(F)cc(C(F)(F)F)c2)CC1)c1cn2cc(C(F)(F)F)ccc2n1 [Compound 332, N-((1S,4S)-4-fluoro-4-(3-fluoro-5-(trifluoromethyl)phenylsulfonyl)cyclohexyl)-6-(trifluoromethyl)imidazo[l,2-a]pyridine-2-carboxamide] | 620 | 6.11 | 5.81 |
| O=C1c2cc(C(F)(F)F)nn2CCN1[C@H]1CC[C@@](F)(S(=O)(=O)c2cc(F)cc(C(F)(F)F)c2)CC1 [Compound 333, 5-((1S,4S)-4-fluoro-4-(3-fluoro-5-(trifluoromethyl)phenylsulfonyl)cyclohexyl)-2-(trifluoromethyl)-6,7-dihydropyrazolo[l,5-a]pyrazin-4(5H)-one] | 180 | 6.02 | 5.74 |
| CN(C(=O)c1ccc(F)c(C(F)(F)F)c1)[C@H]1CC[C@@](F)(S(=O)(=O)c2cc(F)cc(C(F)(F)F)c2)CC1 [Compound 334, 4-fluoro-N-((1S,4S)-4-fluoro-4-(3-fluoro-5-(trifluoromethyl)phenylsulfonyl)cyclohexyl)-N-methyl-3-(trifluorornethyl) benzamide] | 360 | 5.62 | < 5.00 |
| CN(C(=O)c1ccc(F)c(Cl)c1)[C@H]1CC[C@@](F)(S(=O)(=O)c2cc(F)cc(C(F)(F)F)c2)CC1 [Compound 335, 3-chloro-4-fluoro-N-((1S,4S)-4-fluoro-4-(3-fluoro-5-(trifluoromethyl)phenylsulfonyl)cyclohexyl)-N-methylbenzamide] | 520 | 5.33 | < 5.00 |
| CN(C(=O)c1ccc(C(F)(F)F)cc1S(C)(=O)=O)[C@H]1CC[C@@](F)(S(=O)(=O)c2cc(F)cc(C(F)(F)F)c2)CC1 [Compound 336, N-((1S,4S)-4-fluoro-4-(3-fluoro-5-(trifluoromethyl)phenylsulfonyl)cyclohexyl)-N-methyl-2-(methylsulfonyl)-4-(trifluoromethyl)benzamide] | 1060 | 5.87 | 6.16 |
| CN(C(=O)c1ncc(C(F)(F)F)cc1S(C)(=O)=O)[C@H]1CC[C@@](F)(S(=O)(=O)c2cc(F)cc(C(F)(F)F)c2)CC1 [Compound 337, N-((1S,4S)-4-fluoro-4-(3-fluoro-5-(trifluoromethyl)phenylsulfonyl)cyclohexyl)-N-methyl-3-(methylsulfonyl)-5-(trifluoromethyl)picolinarnide] | 910 | 5.06 | < 5.00 |
| CN(C(=O)c1cn2cc(C(F)(F)F)ccc2n1)[C@H]1CC[C@@](F)(S(=O)(=O)c2cc(F)cc(C(F)(F)F)c2)CC1 [Compound 338, N-((1S,4S)-4-fluoro-4-(3-fluoro-5-(trifluoromethyl)phenylsulfonyl)cyclohexyl)-N-methyl-6-(trifluoromethyl) imidazo[1,2-a]pyridine-2-carboxamide] | 770 | 5.17 | < 5.00 |
| CC(C)S(=O)(=O)c1cc(C(F)(F)F)cnc1C(=O)N[C@H]1CC[C@@H](S(=O)(=O)c2cccc(C(F)(F)F)c2)CC1 [Compound 339, 3-(isopropylsulfonyl)-5-(trifluoromethyl)-N-((1S,4S)-4-(3-(trifluoromethyl)phenylsulfonyl)cyclohexyl) picolinamide] | 220 | 5.48 | 5.28 |
| CC(C)S(=O)(=O)c1cc(C(F)(F)F)cnc1C(=O)N[C@H]1CC[C@H](S(=O)(=O)c2cccc(C(F)(F)F)c2)CC1 [Compound 340, 3-(isopropylsulfonyl)-5-(trifluoromethyl)-N-((1R,4R)-4-(3-(trifluoromethyl)phenylsulfonyl)cyclohexyl) picolinamide] | 2010 | 5.50 | 5.01 |
| CC(C)S(=O)(=O)c1cc(C(F)(F)F)cnc1C(=O)N[C@H]1CC[C@H](CS(=O)(=O)c2cccc(C(F)(F)F)c2)CC1 [Compound 341, 3-(isopropylsulfonyl)-5-(trifluoromethyl)-N-((1R,4R)-4-((3-(trifluoromethyl)phenylsulfonyl)methyl)cyclohexyl)picolinamide] | 510 | 5.69 | 5.66 |
| CC(C)S(=O)(=O)c1cc(C(F)(F)F)cnc1C(=O)N[C@H]1CC[C@@H](CS(=O)(=O)c2cccc(C(F)(F)F)c2)CC1 [Compound 342, 3-(isopropylsulfonyl)-5-(trifluoromethyl)-N-((1S,4S)-4-((3-(trifluoromethyl)phenylsulfonyl)methyl)cyclohexyl)picolinamide] | 720 | 6.12 | 5.77 |
| O=C(N[C@H]1C[C@H](CS(=O)(=O)c2cccc(C(F)(F)F)c2)C1)c1ccc(Cl)c(F)c1 [Compound 343, 4-chloro-3-fluoro-N-((1R,3R)-3-((3-(trifluoromethyl)phenylsulfonyl)methyl)cyclobutyl)benzamide] | 1450 | 6.57 | 6.20 |
